Where two headings read alike, the source gives them in different places.
Tests used:
LPS-injected mice = assay: Sucrose preference test in the LPS-induced model of depression; format: in vivo; settings: Example 9; male C57BL/6, i.p. 1 h before LPS 330 µg/kg; mg/kg: CBD 30; CBDA 1 or 5; BCP 50; kaempferol 30; CBD 30 plus THC 10; CBD 30 plus kaempferol 30
Description: In a preliminary screening experiment, subjects were 4-6 months-old male C57BL/6 (Jackson Laboratories, USA). Animals were housed 2-3/cage, kept in an air-conditioned room (23+°C) and given ad libitum access to food and water. The mice were kept in a reversed light/dark cycle, with lights off from 7 a.m. to 7 p.m. All experiments were approved by the Hebrew University of Jerusalem Ethics Committee on Animal Care and Use. In preparation for the Sucrose Preference Test, mice were habituated 2-3 times to sucrose drinking, by exposing them overnight to two graduated tubes, one containing water and the other containing sucrose solution (1%, w/v). Water and sucrose consumption were measured, and sucrose preference was computed by dividing the amount of sucrose consumed by drinking (ml sucrose) by the total drinking volume (ml of sucrose + water). One day later, the weight of the mice and the food in their cages was weighed for later analysis of food consumption and body weight changes. Groups of mice were injected intraperitoneally (i.p.) with either vehicle (cremophor, ethanol and PBS, 1:1:18 (v/v/v)) or a cannabinoid-based formulation (by itself or with another cannabinoid, or a terpene or a flavonoid). One hour later, each of these groups was injected with LPS (330 µg/kg). All injections were administered at a dose of 10 ml/kg. Four hours following the LPS injection, mice were tested in the Open-Field Test. In this test, the measured locomotor activity reflects not only motor capacity, but particularly the innate motivation for spatial exploration (which increases the distance travelled) and the anxiety level (which reduces the distance travelled, in general, and particularly the distance and time spent in the center of the open field). Each subject was placed near one of the walls of a white 50 X 50 cm^2 arena with 40 cm high walls. The distance travelled (cm), the velocity of the movement (cm/second), the time spent (seconds), distance travelled (cm) in the center area of the arena, as well as the number of entries from the perimeter area into the center of the arena were automatically measured over a 4-minute period, using EthoVision XT video tracking system and software (Noldus, The Netherlands). Twenty-four hours after the LPS injection, mice were tested in the Social Exploration Test. […] Social exploration, defined as the time of near contact between the nose of the subject and the juvenile in the small cage was recorded for 4 min, using computerized in-house software. Sucrose preference was assessed, as described above, between 8 to 27 hr post LPS injection. Body weight and weight of the food were measured two hours before the LPS injection, and again after 24 hours, and the change in body weight and food consumption were calculated. […]

BV2 microglial cells = assay: LPS-induced TNFα secretion by BV2 microglia cell cultures (ELISA); format: cell-based, murine; settings: for levels of TNFα compared to cultures treated with vehicle and LPS: 24-hours incubation, CBD 10 but not 1 µM, linalool 100 but not 25 µM, kaempferol dose-dependently at 10, 25 and 50 µM, quercetin 10 and 25 but not 5 µM; for IC50: Mus musculus
Method: The BV2 murine microglial cell line is used in these studies.
The BV2 cells are cultured at 37° C. in a humidified atmosphere with 5% CO2 in high D-glucose (4.5 g/L) Dulbecco’s modified Eagle’s medium (Sigma, Rehovot, Israel) supplemented with 5% heat-inactivated fetal bovine serum, streptomycin (100 µg/ml), and penicillin (100 units/ml) and sodium pyruvate (1 mM; all from Biological Industries Ltd., Kibbutz Beit Haemek, Israel). 24 hours before experiments with LPS stimulation, the BV2 cells are split into 24 well plates, 2×10^5 cells per well, covered with 1 ml of growth medium and allowed to attach overnight. 24 hr before experiments with α-synuclein, the BV2 cells are split into 96-well plates, 50,000 (5×10^4) cells per well, covered with 200 µl of growth medium and allowed to attach overnight. Cultures of BV2 microglia cells are first treated by an individual cannabinoid, or terpene or flavonoid selected from: Cannabidiol (CBD), Δ-9-tetrahydrocannabinol (THC), Δ-8-tetrahydrocannabinol (THC), cannabigerol (CBG), cannabichromene (CBC), cannabigerolic acid (CBGA), Cannabidiolic acid (CBDA), THC acid (THCA), cannabichromenic Acid (CBCA), Cannabidivarin (CBDV), tetrahydrocannabivarin (THCV), Cannabichromevarin (CBCV), Cannabichromerocin ([…]), Cannabivarin (CBV), Cannabicitran (CBT), Cannabinol (CBN), Cannabicyclol (CBL), Cannabigerorcin (CBGO), Cannabinodiol (CBND), β-caryophyllene, β-elemene, β-myrcene, linalool, α-pinene, β-pinene, eucalyptol, alpha-terpineol, valencene, geraniol (lemonol), bisabolol, nerolidol, ocimene, terpinolene, humulene, α-terpinene, camphene, fenchol, α-phellandrene, Δ3-carene, γ-cardinene, sabinene, limonene, β-amyrin, cycloartenol, cannflavin A, cannflavin B, kaempferol, quercetin, luteolin, apigenin, canniprene, orientin, β-sitosterol, vitexin, isovitexin, and chrysin. Additional cultures of BV2 microglia cells are treated by an individual cannabinoid, with at least one additional cannabinoid, and/or terpene, and/or flavonoid, and/or celecoxib. Additional cultures are exposed to the vehicle of these compounds (cremophor, ethanol and PBS, 1:1:18 (v/v/v)) (FIG. 2A). In some studies, cultures of BV2 microglia cells are treated by a specific whole plant cannabis extract, with or without supplementation with cannabinoid(s), and/or terpene(s) and/or flavonoid(s), and/or celecoxib (FIG. 2B).
For each individual cannabinoid mentioned above, 3-4 concentrations are used, ranging from 0.1 to 10 µM. For ultra-low dose Δ9-THC the concentration used is 0.01 µM. […] For celecoxib, 3-4 concentrations are used, ranging from 0.1 to 10 µM. Two hours following the treatment, the cultures are exposed to one of the following microglia stimulators: LPS (Sigma L2630; Escherichia coli serotype O111:B4) is dissolved in D-PBS (Sigma, D8537) to a pre-stock concentration of 1 mg/ml, aliquoted and stored at -80° C. Stock solution of LPS at 10 ug/ml is prepared using sterile D-PBS, followed by filtering via 0.22 µm filter membrane, aliquoting and storing in -20° C. LPS is applied into the cell medium at a final concentration of 100 ng/ml. Poly I:C (Sigma, P1530) was first dissolved in sterile, molecular grade water to the concentration of 10 mg/ml (following the manufacturer’s instructions). This stock solution was further diluted to the concentration of 1 mg/ml in sterile PBS, and the aliquots stored in -20 °C.

[1] = Example 4, by itself at 1, 2.5 and 5 µM

C=C(C)[C@@H]1CCC(C)=C[C@H]1c1c(O)cc(CCCCC)cc1O [CBD, cannabidiol]
sucrose preference compared with vehicle-treated groups (LPS-injected mice): significantly increased sucrose preference | levels of TNFα compared to cultures treated with vehicle and LPS (BV2 microglial cells): reduced | release of TNFα (BV2 microglial cells; Example 3, 10 µM (not 1, 2.5 or 5 µM)): significantly inhibited | release of TNFα vs LPS-activated cultures treated with vehicle (BV2 microglial cells; [1]): no effects | TNFα secretion from LPS activated microglial cells (BV2 microglial cells; Example 5, CBD 5 µM alone (p<0.05)): decreased the TNFα secretion | release of TNFα vs LPS-activated cultures treated with vehicle (BV2 microglial cells; Example 5, by themselves, CBD 1 and 2.5 µM, quercetin 1, 2.5 and 5 µM): did not affect | release of TNFα vs LPS-activated cultures treated with vehicle (BV2 microglial cells; Example 6, by itself, CBD 1, 2.5 and 5 µM, CBDV 1, 2.5, 5 and 10 µM): no concentration of either CBD or CBDV by itself affected release of TNFα | inhibition of LPS-induced TNFα secretion (BV2 microglial cells; Example 7, by themselves): did not produce significant inhibition | LPS-induced TNFα release (BV2 microglial cells; Example 25, LPS 100 ng/ml, CannA 5 and 10 µM, CBD and CannB only at 10 µM, CannC 1-10 µM, extract concentration as dominant cannabinoid): significantly inhibited | IC50 (BV2 microglial cells; BV-2, read-out: CBD IC50, LPS-induced TNFα release, Example 4, addition of 1 µM kaempferol): 2.3 µM | IC50 (BV2 microglial cells; BV-2, read-out: CBD IC50, LPS-induced TNFα release, Example 4, addition of 2.5 µM kaempferol): 1.3 µM | IC50 (BV2 microglial cells; BV-2, read-out: CBD IC50, LPS-induced TNFα release, Example 4, addition of 5 µM kaempferol): 0.8 µM | IC50 (BV2 microglial cells; BV-2, read-out: CBD IC50, LPS-induced TNFα release, Example 5, addition of 1 µM quercetin): 3.8 µM | IC50 (BV2 microglial cells; BV-2, read-out: CBD IC50, LPS-induced TNFα release, Example 5, addition of 2.5 µM quercetin): 3.2 µM | IC50 (BV2 microglial cells; BV-2, read-out: CBD IC50, LPS-induced TNFα release, Example 5, addition of 5 µM quercetin): 1.8 µM | IC50 (BV2 microglial cells; BV-2, read-out: CBD IC50, LPS-induced TNFα release, Example 6, addition of 1 µM CBDV): 3.4 µM | IC50 (BV2 microglial cells; BV-2, read-out: CBD IC50, LPS-induced TNFα release, Example 6, addition of 2.5 µM CBDV): 4.8 µM | IC50 (BV2 microglial cells; BV-2, read-out: CBD IC50, LPS-induced TNFα release, Example 6, addition of 5 µM CBDV): 2.7 µM | IC50 (BV2 microglial cells; BV-2, read-out: CBD IC50, LPS-induced TNFα release, Example 6, addition of 10 µM CBDV): 2.4 µM | IC50 (BV2 microglial cells; BV-2, read-out: IC50 for TNFα inhibition): 7.2 µM | IC50 (BV2 microglial cells; BV-2, read-out: IC50 for inhibiting LPS-induced TNFα release): 5.3 µM | IC50 (BV2 microglial cells; BV-2, read-out: IC50 for inhibiting LPS-induced TNFα release, Example 5 (FIG. 6C), by itself): 6.2 µM | IC50 (BV2 microglial cells; BV-2, read-out: IC50 for inhibiting LPS-induced TNFα release, Example 6 (FIG. 7C), by itself): 5.4 µM

C=C(C)[C@@H]1CCC(C)=C[C@H]1c1c(O)cc(CCCCC)c(C(=O)O)c1O [CBDA, Cannabidiolic acid]
sucrose preference compared with vehicle-treated groups (LPS-injected mice): significantly increased sucrose preference | effect on lipopolysaccharide-induced TNFα secretion (BV2 microglial cells; THC 0.1, 0.5 and 1 µM, CBDA 0.2, 1 and 2 µM, CBC 0.1, 1 and 2 µM, α-pinene, β-pinene, limonene 25 or 100 µM): no effect

O=c1c(O)c(-c2ccc(O)cc2)oc2cc(O)cc(O)c12 [kaempferol]
sucrose preference compared with vehicle-treated groups (LPS-injected mice): significantly increased sucrose preference | levels of TNFα compared to cultures treated with vehicle and LPS (BV2 microglial cells): reduced | release of TNFα vs LPS-activated cultures treated with vehicle (BV2 microglial cells; [1]): no effects | IC50 (BV2 microglial cells; BV-2, Example 4 (FIG. 5C), by itself, read-out: IC50 for inhibiting LPS-induced TNFα release): 9.8 µM

Source: US20230270764A1, “COMPOSITION COMPRISING CANNABINOIDS, TERPENES, AND FLAVONOIDS FOR TREATING DEPRESSION” (priority 2020, published 2023)
